Experiment: Metabolic stability in mouse liver microsomes (t1/2)
Assay type: in vitro ADME
Settings: NADPH, 37 °C
Method: Microsomal incubations were carried out in 96-well plates in 3 aliquots of 30 μL each (one for each time point). Liver microsomal incubation medium comprised phosphate buffer (100 mM, pH 7.4), MgCl2 (3 mM), NADPH (3 mM), glucose-6-phosphate (5.3 mM), and glucose-6-phosphate dehydrogenase (0.67 units/mL) with 0.42 mg of liver microsomal protein per mL. In the control reactions, the NADPH-cofactor system was substituted with phosphate buffer. Test compounds (2 μM, final solvent concentration 1.6%) were incubated with microsomes at 37 °C, shaking at 100 rpm. Three time points over 7 min were analyzed. The reactions were stopped by adding 5 volumes of methanol with internal standard to incubation aliquots followed by protein sedimentation by centrifuging at 6,000 rpm for 20 min. Each reaction was performed in duplicate. Supernatants were analyzed using the HPLC system coupled with a tandem mass spectrometer and high-resolution mass spectrometer.
The incubation was stopped after defined time points by precipitation of aliquots of enzymes with 2 volumes of cold internal standard solution (15 nM diphenhydramine in 10% methanol/acetonitrile). […] The remaining test compound at the different time points was analyzed by HPLC-MS/MS (Vanquish Flex coupled to a TSQ Altis Plus, Thermo Fisher, Dreieich, Germany) and used to determine half-life (t 1/2).

SMILES | Mouse liver microsomes t1/2
O=C(N[C@H](Cc1ccccc1)C(=O)Nc1ccccc1N1CCS(=O)(=O)CC1)c1ccccc1F [AAP-SO2] | 1.8 min
O=C(N[C@H](Cc1ccccc1)C(=O)Nc1ccccc1N1CCOCC1)c1cccs1 [MMV688845] | 0.9 min

Reference: publication PMC13270519, “Cytochrome P450-Mediated Metabolism of Antimycobacterial Nα‑Aroyl‑N‑aryl-phenylalanine Amides” (ACS Infectious Diseases, 2026)
